In brackets after ≈: the same amount, converted by molar mass. Several values for one entry are separate records, joined by “and”; a condition that tells them apart may be missing. Equal values may be shown once.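 Compound exposure: 48 hours, 5 concentrations, 96-well plates. Abbreviation: GI50, concentration required for 50% inhibition of growth. Definition used: TGI = concentration required for complete inhibition of growth.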 Activity calls are given as the source filed them. Rule as the data show it: active = GI50 below about 0.43 µM; inactive = the rest.

Holding throughout (assay): DTP human tumour cell line panel, 48 h
Test [1] deals with BT-549 breast.
For test [2], the system named is MDA-N.
For test [3], the system named is DLD-1 colon.
In test [4] the test system is DMS 114 small cell lung.
Test [5] has as its system DMS 273 small cell lung.
Test [6] has as its system KM20L2 colon.
Test [7] has as its system M19-MEL melanoma.
Test [8] has as its system SNB-78 CNS.
Test [9] has as its system LXFL 529 NSCLC.

Consider `NOCC(=O)O`, for which, in [1], the GI50 was more than 100 µM and the TGI was more than 100 µM.

In the case of `O=C1Nc2ccc(C(=O)c3ccco3)cc2/C1=C/c1cc(Cl)c(O)c(Cl)c1`, in [1], the GI50 is 3.54 µM and the TGI stood at 10.5 µM.

With `CC1(C)C2CCC3=C(CCC4(C)C5C[C@](C)(C(=O)O)CC[C@]5(C)CC[C@]34C)[C@@]2(C)CC[C@@H]1O` (stereo partly drawn), the figures for the TGI in [1] and in [2] were 39.1 µM and 37.8 µM, respectively.

In the case of `COc1ccc(CN(C)c2ccc(CO)c(Cl)c2)cc1`, in test [1], the GI50 is 19.8 µM and the total growth inhibition concentration (TGI) is 73.7 µM.

As to `O=C1CC(NC(=O)C(F)(F)F)c2c1csc2Br` (stereo not drawn), the TGI in [1] and in test [2] was more than 100 µM throughout.

Turning to `CO[C@@H]1/C=C\C=C(/C)C(=O)NC2=CC(=O)C(NCCN(C)C)=C(C[C@@H](C)C[C@@H](OC)[C@@H](O)[C@H](C)/C=C(\C)[C@H]1OC(N)=O)C2=O`, in [1], the GI50 is 0.88 µM and 1.53 µM; the TGI is 14.6 µM and 21.1 µM. Moreover, the TGI in test [2] was 1.92 µM and 2.18 µM.

Take `Cc1c[nH]c2c(O)cc3c(c12)[C@H](CCl)CN3C(=O)c1cc2cc(NC(=O)Nc3ccc4[nH]c(C(=O)N5C[C@@H](CCl)c6c5cc(O)c5[nH]cc(C)c65)cc4c3)ccc2[nH]1`: the GI50 in [3] is 0.000887 ng/mL and 1.4 ng/mL; in [4], 0.000887 ng/mL and 0.888 ng/mL; in [5], 0.000887 ng/mL and 0.888 ng/mL; in test [7], 1.14 ng/mL (≈ 1.4 nM); in test [2] it was 0.0123 µM; in [8] it was 0.000887 ng/mL and 2.73 ng/mL. The result in test [6] was inactive. Besides, the TGI in test [7] is 3.44 ng/mL; in [8] it was 1.59 µM and 0.00887 µg/mL and 6.72 µg/mL.

With `CCC1(CC)C(=O)OC(=O)C1(CC)CC`, the TGI in test [1] and in test [2] was more than 100 µM throughout.

`COc1cc(/C=C(\C#N)C(=O)c2ccccc2)ccc1OCc1ccccc1`: the TGI in [4], in test [6], in test [7] and in test [8] was more than 100 µM each time.

With `CC1=C2[C@@H](CC1)[C@]1(C)O[C@@](C3CCCCC3)(C[C@H]1OC(=O)CO)[C@H]2OC(=O)/C=C/c1ccccc1`, in test [1], the GI50 was 0.328 µM and the TGI turned out to be 6.67 µM.

As to `COc1ccc(N2C(=O)CC(Cl)C2=O)cc1` (stereo not drawn), in [1], the total growth inhibition concentration (TGI) is more than 100 µM.

As to `ClCc1cccc(Cn2cnc3c(NC45CC6CC(CC(C6)C4)C5)ncnc32)c1`, in [1], the GI50 was 12.8 µM and the TGI came to 29.4 µM.

Consider `COc1ccccc1N1C(=O)/C(=C/c2ccc(N(CCC#N)CCC#N)cc2C)N=C1c1cc([N+](=O)[O-])ccc1Cl`, for which the TGI in test [4] was more than 100 µM; in test [5], more than 100 µM; in [6], more than 100 µM; in test [9] it was more than 100 µM; in [7] it was 56.3 µM; in test [8] it was more than 100 µM.

As for `Cn1ccnc1CC(C)(O)c1ccccc1` (stereo not drawn), the TGI in [1] and in [2] was more than 100 µM throughout.

With `CC(=O)N[C@H]1C=C[C@@H]2/C=C(C)/C=C/[C@@H](C)[C@H]([C@H](C)[C@H](O)[C@@H](C)NC(C)=O)OC(=O)/C=C/C=C(C)\C=C\[C@]2(C)C1`, in test [1], the GI50 was 0.023 µM and 0.0045 µM; the TGI is 4.65 µM and > 45 µM.

Consider `CCN(CC)CCC(=O)NC1c2ccc(Cl)cc2Oc2c(C)cccc21` (stereo not drawn), for which the TGI was found to be 27.1 µM in test [1] and 32.3 µM in [2].

`C[C@]12C[C@H](c3ccccc3)Nc3ccccc3N1C(c1ccccc1)=NO2`: the TGI in [1] and in test [2] was more than 100 µM each time.

On to `COc1ccc([N+]2=NC(c3ccc([N+](=O)[O-])cc3)=NN(c3ccccc3)C2)cc1`, for which the TGI in [3], in test [4], in test [5], in test [6], in test [9] and in test [8] was more than 100 µM each time.

In the case of `CC(=O)C(=[N+]=[N-])C(=O)NCC#N`, the concentration for total growth inhibition (TGI) in test [1] and in test [2] was more than 10 µM in each case.

Take `CCN1CCN(C(=O)[C@]23CC[C@@H](C)[C@H](C)[C@@H]2C2=CC[C@@H]4[C@@]5(C)C/C(=C/c6ccncc6)C(=O)C(C)(C)[C@@H]5CC[C@@]4(C)[C@]2(C)CC3)CC1`: in [1], the GI50 was 1.78 µM and the TGI came out at 3.78 µM.

Regarding `COc1cc(OC)c(/C=C/S(=O)(=O)Cc2cnc(OC)c(N)c2)c(OC)c1`, in test [1], the 50% growth inhibitory concentration (GI50) was less than 0.0256 µM and the TGI was more than 74.6 µM.

For `Cn1c([N+](=O)[O-])cnc1/C=C1\Oc2ccccc2C1=O`, in test [1], the GI50 is 0.659 µM and the TGI worked out at 4.17 µM.

For `COc1ccc(/C=C2\CCC(CNc3cc(C)on3)C2=O)cc1` (stereo not drawn), the TGI in test [1] and in test [2] was more than 100 µM each time.

On to `O=C(/C=C/c1ccc(F)cc1)c1ccc(Cl)cc1Cl`, for which, in test [1], the GI50 is 27.2 µM and the TGI turned out to be 71.6 µM.

With `CCCCc1c2c(nc3c1CCC/C3=C\c1ccccc1)C(=O)CCC2`, the TGI is 41.7 µM in test [4]; 65.6 µM in [5]; 41.7 µM in [6]; more than 100 µM in test [9]; 34.4 µM in test [7]; 52.5 µM in test [8].

On to `COc1cc(Nc2nccc(Nc3ccc4c(C)[nH]nc4c3)n2)cc(OC)c1OC`, for which, in test [1], the GI50 was 3.3 µM and the TGI was determined as 11 µM.

Turning to `COC(=O)c1s/c(=N\C(=S)N(C)C)n(-c2ccccc2)c1C(=O)OC`, the total growth inhibition concentration (TGI) in test [4], in test [5], in test [6], in test [7] and in test [8] was more than 100 µM each time.

As to `COc1ccc(-c2onc(-c3ccc([N+](=O)[O-])cc3)c2C2=NCCN2)cc1`, the TGI in [3], in test [6], in test [9], in [7] and in [8] was more than 100 µM throughout.

Values taken from PubChem BioAssay (NCI).
